# Source: patent US20170029813A1, “METHODS AND SYSTEMS FOR DROPLET TAGGING AND AMPLIFICATION” (President and Fellows of Harvard College, priority 2014, published 2017)
# Experiments:
# Leukemia K562 cells = test: Apoptosis and necrosis by Annexin V / propidium iodide staining of cells in agarose gel particles; assay type: cell-based; conditions: 48 hr incubation, drops containing 20 micrograms/mL Imatinib mixed at a 1:1 ratio (10 micrograms/mL per FIG. 12), PI and Annexin V staining
# Procedure: In this example, first cells are mixed with molten low melt agarose at 37° C. and together incorporated into droplets. […] An UltraPure low melting point agarose is used in this experiment, which melts at 65.5° C., remains fluid at 37° C. and becomes solid rapidly at temperatures below 25° C. […] In this example, agarose powder was dissolved into PBS and autoclaved to prepare a sterilized 2% (w/v) agarose solution. Cells were counted and suspend in a DMEM culture media with 40% fetal bovine serum, and the cell suspension was mixed with agarose solution at 1:1 volume ratio. The mixture of cells and agarose gel was flowed into the sample inlet of a microfluidic drop-making device, and HFE7500 oil with 2% surfactant was flowed into the oil inlet to cause the cell-containing agarose gel to produce 80 micrometer drops. The generated gel-in-oil drops were collected into a pre-cooled eppendorf tube in an ice bath.
# The drops containing agarose gel particles were collected into a pre-cooled eppendorf tube, after which the injected cell-containing agarose gel remained spherical. In the following steps, the agarose gel particles were injected into the drop containing drug combination and drug barcodes, followed by incubation, destabilization, staining, washing and FACS to obtain the gel particles containing positive cells. […]
# [1] = test system: K562 chronic myeloid leukemia cells; test: Apoptosis detection with fluorogenic caspase substrate Caspalux6-J1D2 in bulk and in drops; assay type: cell-based; conditions: K562 cells treated with Imatinib for 24 hours; both bulk and drop experiment (FIG. 7)
# Procedure: Single K562 chronic myeloid leukemia cells were introduced to the drug combinations by picoinjecting a cell suspension to the merged drops at a concentration known to obtain a Poisson distribution with rate λ (lambda)=0.1, and incubated at 37° C. for 24 hours.
# By adding a fluorogenic substrate, caspalux6-J1D2, which is specifically cleaved by increased caspase 3 and caspase 3-like activities during apoptosis, apoptosis of cells in drops can be determined.
smiles,measurement,setting,value
Cc1ccc(NC(=O)c2ccc(CN3CCN(C)CC3)cc2)cc1Nc1nccc(-c2cccnc2)n1 [Imatinib],apoptotic and necrotic cells,Leukemia K562 cells,About 70%
same,apoptotic signal (Caspalux6-J1D2 fluorescence),[1],clear apoptotic signal
